Data reported in patent publication US8871681B2, “Herbicidal compositions comprising 4-amino-3-chloro-5-fluoro-6-(4-chloro-2-fluoro-3-methoxyphenyl) pyridine-2-carboxylic acid or a derivative thereof and certain sulfonylureas” (Dow AgroSciences LLC, priority 2012, dated 2014).

Experiments:
[1] = tested on: CYPES (Cyperus esculentus, yellow nutsedge); test: Postemergence foliar-applied weed control, direct seeded rice, greenhouse (Example I); assay type: in vivo, Cyperus esculentus L.; settings: 20 DAA
Text: (§1) Seeds or nutlets of the desired test plant species were planted in a soil matrix prepared by mixing a loam or sandy loam soil (e.g., 28.6 percent silt, 18.8 percent clay, and 52.6 percent sand, with a pH of about 5.8 and an organic matter content of about 1.8 percent) and calcareous grit in an 80 to 20 ratio. The soil matrix was contained in plastic pots with a volume of 1 quart and a surface area of 83.6 square centimeters (cm^2). When required to ensure good germination and healthy plants, a fungicide treatment and/or other chemical or physical treatment was applied. The plants were grown for 8-22 days in a greenhouse with an approximate 14 h photoperiod which was maintained at about 29° C. during the day and 26° C. during the night. Nutrients (Peters Excel® 15-5-15 5-Ca 2-Mg and iron chelate) were applied in the irrigation solution as needed and water was added on a regular basis. Supplemental lighting was provided with overhead metal halide 1000-Watt lamps as necessary. The plants were employed for testing when they reached the first through fourth true leaf stage.
(§2) Treatments consisted of the acid or esters of 4-amino-3-chloro-5-fluoro-6-(4-chloro-2-fluoro-3-methoxy-phenyl)pyridine-2-carboxylic acid (Compound A), each formulated as an SC, and various herbicidal components alone and in combination. Forms of compound A were applied on an acid equivalent basis.
(§3) Other herbicidal components were applied on an active ingredient basis and included acetolactate synthase (ALS)-inhibiting herbicides (sulfonylurea chemical class) azimsulfuron formulated as Gulliver®, bensulfuron-methyl formulated as Londax® 60DF, cyclosulfamuron (technical material), ethoxysulfuron formulated as Sunrice® 15 WDG, flazasulfuron formulated as Katana®, flucetosulfuron formulated as Sukedachi® 1KG G, foramsulfuron formulated as Option®, imazosulfuron formulated as Brazzos® WG, iodosulfuron-methyl-sodium formulated as Hussar®, metsulfuron-methyl formulated as Lorate®, nicosulfuron formulated as Accent®, orthosulfamuron formulated as Strada® WG, primisulfuron-methyl (technical material), propyrisulfuron formulated as Zeta One®, rimsulfuron formulated as Matrix® WG, sulfometuron-methyl formulated as Oust®, and trifloxysulfuron-sodium formulated as Monument® 75WG.
(§4) Treatment requirements were calculated based upon the rates being tested, the concentration of active ingredient or acid equivalent in the formulation, and a 12 mL application volume at a rate of 187 L/ha.
(§5) For treatments comprised of formulated compounds, measured amounts of compounds were placed individually in 25 mL glass vials and diluted in a volume of 1.25% (v/v) Agri-Dex® crop oil concentrated to obtain 12× stock solutions. […] Application solutions were prepared by adding an appropriate amount of each stock solution (e.g., 1 mL) and diluted to the appropriate final concentrations with the addition of 10 mL of an aqueous mixture of 1.25% (v/v) crop oil concentrate so that the final spray solutions contained 1.25+/−0.05% (v/v) Agrcrop oil concentrate.
(§6) For treatments comprised of formulated and technical compounds, weighed amounts of the technical materials were placed individually in 25 mL glass vials and dissolved in a volume of 97:3 v/v acetone/DMSO to obtain 12× stock solutions, and measured amounts of the formulated compounds were placed individually in 25 mL glass vials and diluted in a volume of 1.25% (v/v) crop oil concentrate to obtain 12× stock solutions. […] Application solutions were prepared by adding an appropriate amount of each stock solution (e.g., 1 mL) and diluted to the appropriate final concentrations with the addition of an appropriate amount of an aqueous mixture of 1.5% (v/v) crop oil concentrate so that the final spray solutions contained 1.25% (v/v) crop oil concentrate. […]

[2] = tested on: LEFCH (Leptochloa chinensis, Chinese sprangletop); test: In-water applied weed control, transplanted paddy rice, greenhouse (Example II); assay type: in vivo, Leptochloa chinensis (L.) Nees
Experimental: (§7) Weed seeds or nutlets of the desired test plant species were planted in puddled soil (mud) prepared by mixing a shredded, non-sterilized mineral soil (50.5 percent silt, 25.5 percent clay, and 24 percent sand, with a pH of about 7.6 and an organic matter content of about 2.9 percent) and water at a 1:1 volumetric ratio. The prepared mud was dispensed in 365 mL aliquots into 16-ounce (oz.) non-perforated plastic pots with a surface area of 86.59 square centimeters (cm^2) leaving a headspace of 3 centimeters (cm) in each pot. Rice seeds were planted in Sun Gro MetroMix® 306 planting mixture, which typically has a pH of 6.0 to 6.8 and an organic matter content of about 30 percent, in plastic plug trays. Seedlings at the second or third leaf stage of growth were transplanted into 860 mL of mud contained in 32-oz. non-perforated plastic pots with a surface area of 86.59 cm^2 4 days prior to herbicide application. The paddy was created by filling the headspace of the pots with 2.5 to 3 cm of water. When required to ensure good germination and healthy plants, a fungicide treatment and/or other chemical or physical treatment was applied. The plants were grown for 4-22 days in a greenhouse with an approximate 14 h photoperiod which was maintained at about 29′C during the day and 26° C. during the night. Nutrients were added as Osmocote® (19:6:12, N:P:K+minor nutrients) at 2 g per 16-oz. pot and 4 g per 32-oz. pot. Water was added on a regular basis to maintain the paddy flood, and supplemental lighting was provided with overhead metal halide 1000-Watt lamps as necessary. The plants were employed for testing when they reached the first through fourth true leaf stage.
(§8) Treatments consisted of the acid or esters of 4-amino-3-chloro-5-fluoro-6-(4-chloro-2-fluoro-3-methoxy-phenyl)pyridine-2-carboxylic acid (compound A) each formulated as an SC and various herbicidal components alone and in combination. Forms of compound A were applied on an acid equivalent basis.
(§9) Other herbicidal components were applied on an active ingredient basis and included acetolactate synthase (ALS)-inhibiting herbicides (sulfonylurea chemical class), azimsulfuron formulated as Gulliver®, bensulfuron-methyl formulated as Londax® 60DF, cyclosulfamuron (technical grade materail), ethoxysulfuron formulated as Sunrice® 15 WDG, flucetosulfuron formulated as Sukedachi® 1KG G, imazosulfuron formulated as Brazzos®, metsulfuron-methyl formulated as Lorate®, nicosulfuron formulated as Accent®, orthosulfamuron formulated as Strada® WG, propyrisulfuron formulated as Zeta One®, and rimsulfuron formulated as Matrix® WG.
(§10) Treatment requirements for each compound or herbicidal component were calculated based upon the rates being tested, the concentration of active ingredient or acid equivalent in the formulation, an application volume of 2 mL per component per pot, and an application area of 86.59 cm^2 per pot.
(§11) For formulated compounds, a measured amount was placed in an individual 100 or 200 mL glass vial and was dissolved in a volume of 1.25% (v/v) Agri-Dex® crop oil concentrate to obtain application solutions.
(§12) For technical grade compounds, a weighed amount was placed in an individual 100 to 200 mL glass vial and was dissolved in a volume of acetone to obtain concentrated stock solutions. […] The concentrated stock solutions obtained were diluted with an equivalent volume of an aqueous mixture containing 2.5% (v/v) crop oil concentrate so that the final application solutions contained 1.25% (v/v) crop oil concentrate.
(§13) Applications were made by injecting with a pipetter appropriate amounts of the application solutions, individually and sequentially, into the aqueous layer of the paddy. Control plants were treated in the same manner with the solvent blank. Applications were made so that all treated plant material received the same concentrations of acetone and crop oil concentrate. […]

[3] = tested on: CYPRO (Cyperus rotundus, purple nutsedge); test: as above; assay type: in vivo, Cyperus rotundus L.
Experimental: as §7, §8, §9, §10, §11, §12, §13

[4] = tested on: DIGSA (Digitaria sanguinalis, large crabgrass); test: Postemergence foliar-applied weed control, direct seeded rice, greenhouse (Example I); assay type: in vivo, Digitaria sanguinalis (L.) Scop.
Text: as §1, §2, §3, §4, §5, §6

[5] = tested on: ECHCG (Echinochloa crus-galli, barnyardgrass); test: In-water applied weed control, transplanted paddy rice, greenhouse (Example II); assay type: in vivo, Echinochloa crus-galli (L.) Beauv.
Experimental: as §7, §8, §9, §10, §11
For technical grade compounds, a weighed amount was placed in an individual 100 to 200 mL glass vial and was dissolved in a volume of acetone to obtain concentrated stock solutions. […]

[6] = tested on: IPOHE (Ipomoea hederacea, ivyleaf morningglory); test: Postemergence foliar-applied weed control, direct seeded rice, greenhouse (Example I); assay type: in vivo, Ipomoea hederacea Jacq.; settings: 20 DAA
Text: as §1, §2, §3, §4, §5, §6

[7] = tested on: SCPMA (Bolboschoenus maritimus or Schoenoplectus maritimus, sea clubrush); test: In-water applied weed control, transplanted paddy rice, greenhouse (Example II); assay type: in vivo, Bolboschoenus maritimus (L.) Palla
Method in brief: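 Transplanted rice and weeds at first to fourth true leaf stage in flooded mud pots (2.5–3 cm water), greenhouse ~29/26 °C day/night. Herbicides alone or mixed, in 1.25% crop oil concentrate (acetone for technical material), injected into the flood; visual 0–100% injury after ~3 weeks, expected mixture effects by Colby.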

[8] = tested on: LEFCH (Leptochloa chinensis, Chinese sprangletop); test: Postemergence foliar-applied weed control, direct seeded rice, greenhouse (Example I); assay type: in vivo, Leptochloa chinensis (L.) Nees; settings: Dinebra chinensis, post-emergence, 576 h, 24 DAA, read-out: Visual Weed Control (%) Obs
Text: as §1, §2, §3, §4, §5, §6

[9] = tested on: ECHCO (Echinochloa colona, junglerice); test: In-water applied weed control, transplanted paddy rice, greenhouse (Example II); assay type: in vivo, Echinochloa colona (L.) Link
Experimental: as §7, §8, §9, §10, §11, §12, §13

[10] = tested on: BRAPP (Brachiaria platyphylla, broadleaf signalgrass); test: Postemergence foliar-applied weed control, direct seeded rice, greenhouse (Example I); assay type: in vivo, Brachiaria platyphylla (Griseb.) Nash; settings: Urochloa platyphylla, post-emergence, 504 h, 21 DAA, read-out: Visual Weed Control (%) Obs
Method in brief: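 Greenhouse-grown plants in loam/sandy loam–grit soil (14 h photoperiod, ~29/26 °C) were sprayed postemergence at the first to fourth true leaf stage. Compound A (acid equivalent basis) and ALS-inhibiting sulfonylureas (active ingredient basis) were applied alone and in combination in 1.25% (v/v) crop oil concentrate at 187 L/ha by track sprayer; controls received solvent blank.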

[11] = tested on: FIMMI (Fimbristylis miliacea, globe fringerush); test: In-water applied weed control, transplanted paddy rice, greenhouse (Example II); assay type: in vivo, Fimbristylis miliacea (L.) Vahl
Experimental: as §7, §8, §9, §10, §11, §12, §13

## CCS(=O)(=O)c1cccnc1S(=O)(=O)NC(=O)Nc1nc(OC)cc(OC)n1 [Rimsulfuron, N-[[(4,6-dimethoxy-2-pyrimidinyl)amino]carbonyl]-3-(ethylsulfonyl)-2-pyridinesulfonamide, reference compound]
[1]; 2.19 gai/ha
  Visual Weed Control (%) Obs: 0%
[1]; 4.38 gai/ha
  Visual Weed Control (%) Obs: 0%
[1]; 8.75 gai/ha
  Visual Weed Control (%) Obs: 60%
[2]; Table 49, 4.38 gai/ha alone
  Visual Weed Control (%) - 20 DAA LEFCH Obs: 0%
[2]; Table 50, 4.38 gai/ha alone
  Visual Weed Control (%) - 20 DAA LEFCH Obs: 0%
[2]; Table 50, 8.75 gai/ha alone
  Visual Weed Control (%) - 20 DAA LEFCH Obs: 30%
[3]; Table 49, 4.38 gai/ha alone
  Visual Weed Control (%) - 20 DAA CYPRO Obs: 0%
[3]; Table 50, 4.38 gai/ha alone
  Visual Weed Control (%) - 20 DAA CYPRO Obs: 0%
[4]; 20 DAA, 8.75 gai/ha
  Visual Weed Control (%) Obs: 70%
[5]; Table 50, 4.38 gai/ha alone
  Visual Weed Control (%) - 20 DAA ECHCG Obs: 0%
[5]; Table 50, 8.75 gai/ha alone
  Visual Weed Control (%) - 20 DAA ECHCG Obs: 0%
[6]; 4.38 gai/ha
  Visual Weed Control (%) Obs: 60%
[6]; 8.75 gai/ha
  Visual Weed Control (%) Obs: 75%

## COc1cc(OC)nc(NC(=O)NS(=O)(=O)c2c(Cl)nc3ccccn23)n1 [Imazosulfuron, 2-chloro-N-[[(4,6-dimethoxy-2-pyrimidinyl)amino]carbonyl]imidazo[1,2-a]pyridine-3-sulfonamide, reference compound]
[4]; 24 DAA, 21 gai/ha
  Visual Weed Control (%) Obs: 0%
[4]; 24 DAA, 42 gai/ha
  Visual Weed Control (%) Obs: 0%
[7]; Table 38, 168 gai/ha alone
  Visual Weed Control (%) - 20 DAA SCPMA Obs: 65%
[7]; Table 39, 168 gai/ha alone
  Visual Weed Control (%) - 20 DAA SCPMA Obs: 65%
[7]; Table 40, 168 gai/ha alone
  Visual Weed Control (%) - 20 DAA SCPMA Obs: 65%
[8]; 21 gai/ha
  pest or weed control at 21 g/ha: 0%
[8]; 42 gai/ha
  pest or weed control at 42 g/ha: 0%
[8]; 84 gai/ha
  pest or weed control at 84 g/ha: 0%
[9]; Table 38, 22.5 gai/ha alone
  Visual Weed Control (%) - 21 DAA ECHCO Obs: 20%
[9]; Table 38, 45 gai/ha alone
  Visual Weed Control (%) - 21 DAA ECHCO Obs: 20%
[9]; Table 39, 45 gai/ha alone
  Visual Weed Control (%) - 21 DAA ECHCO Obs: 20%

## CCCc1ccc2nc(Cl)c(S(=O)(=O)NC(=O)Nc3nc(OC)cc(OC)n3)n2n1 [Propyrisulfuron, 2-chloro-N-[[(4,6-dimethoxy-2-pyrimidinyl)amino]carbonyl]-6-propylimidazo[1,2-b]pyridazine-3-sulfonamide, reference compound]
[2]; Table 47, 22.5 gai/ha alone
  Visual Weed Control (%) - 21 DAA LEFCH Obs: 0%
[2]; Table 47, 45 gai/ha alone
  Visual Weed Control (%) - 21 DAA LEFCH Obs: 0%
[10]; 11.25 gai/ha
  pest or weed control at 11.25 g/ha: 0%
[10]; 22.5 gai/ha
  pest or weed control at 22.5 g/ha: 20%
[10]; 45 gai/ha
  pest or weed control at 45 g/ha: 10%
[7]; Table 48, 11.25 gai/ha alone
  Visual Weed Control (%) - 21 DAA SCPMA Obs: 80%
[11]; Table 48, 11.25 gai/ha alone
  Visual Weed Control (%) - 21 DAA FIMMI Obs: 85%
[11]; Table 48, 22.5 gai/ha alone
  Visual Weed Control (%) - 21 DAA FIMMI Obs: 88%
[11]; Table 48, 45 gai/ha alone
  Visual Weed Control (%) - 21 DAA FIMMI Obs: 95%
